# Where a name gives a salt, the structure may show the parent alone. Read-outs that look alike come from different tables or passages of the source.
# How the values were obtained:
# Assay in all cases: AK assay 384-well format, Prestwick library screening
# E. coli = type: cell-based, Escherichia coli; details: 50 μM final drug concentration; for fold induction at 50 µM: Escherichia coli, 3 h
# K. pneumoniae = type: cell-based, Klebsiella pneumoniae; details: 50 μM final drug concentration; for fold induction at 50 µM: Klebsiella pneumoniae, 3 h
# [1] = system: S. aureus strain USA300-0114; type: cell-based, Staphylococcus aureus; details: 50 μM final drug concentration; for fold induction at 50 µM: Staphylococcus aureus, USA300, 3 h
# P. aeruginosa = type: cell-based, Pseudomonas aeruginosa; details: 50 μM final drug concentration; for fold induction at 50 µM: Pseudomonas aeruginosa, 3 h
# E. faecium = type: cell-based, Enterococcus faecium; details: 50 μM final drug concentration; for fold induction at 50 µM: Enterococcus faecium, 3 h
# [2] = system: A. baumannii strain 98-37-09; type: cell-based, Acinetobacter baumannii; details: 50 μM final drug concentration; for fold induction at 50 µM: Acinetobacter baumannii, 983709, 3 h
# E. cloacae = type: cell-based, Enterobacter cloacae; details: 50 μM final drug concentration; for fold induction at 50 µM: Enterobacter cloacae, 3 h
# [3] = cutoff for positive-scoring molecules 3-fold increase
# [4] = planktonic, cutoff for positive 3-fold increase
# [5] = 384-well format, cutoff for positive-scoring molecules 3-fold increase
compound,measurement,setting,value
COc1ccc2c(c1)N(C[C@H](C)CN(C)C)c1ccccc1S2.O=C(O)/C=C\C(=O)O [Methotrimeprazine maleat salt],"AK-based Prestwick Library Screening Results, E. coli (fold increase in extracellular AK activity)",E. coli; [3],1.3
same,"AK-based Prestwick Library Screening Results, K. pneumoniae (fold increase in extracellular AK activity)",K. pneumoniae; [3],1.0
same,"AK-based Prestwick Library Screening Results, S. aureus (fold increase in extracellular AK activity)",[1]; [3],1.2
same,"AK-based Prestwick Library Screening Results, P. aeruginosa (fold increase in extracellular AK activity)",P. aeruginosa; [3],1.1
same,"AK-based Prestwick Library Screening Results, E. faecium (fold increase in extracellular AK activity)",E. faecium; [3],1.0
same,"AK-based Prestwick Library Screening Results, A. baumannii (fold increase in extracellular AK activity)",[2]; [3],1.1
same,"AK-based Prestwick Library Screening Results, E. cloacae (fold increase in extracellular AK activity)",E. cloacae; [3],1.8
COc1ccc(OC)c(C(O)C(C)N)c1 (centres unmarked) [Methoxamine hydrochloride],fold induction at 50 µM,"E. coli; planktonic, cutoff for positive 3-fold increase, read-out: AK-based Prestwick Library Screening Results, E. coli (fold increase in extracellular AK activity)",1.1
same,fold induction at 50 µM,"K. pneumoniae; planktonic, cutoff for positive 3-fold increase, read-out: AK-based Prestwick Library Screening Results, K. pneumoniae (fold increase in extracellular AK activity)",1
same,fold induction at 50 µM,"[1]; planktonic, cutoff for positive 3-fold increase, read-out: AK-based Prestwick Library Screening Results, S. aureus (fold increase in extracellular AK activity)",0.9
same,fold induction at 50 µM,"P. aeruginosa; planktonic, cutoff for positive 3-fold increase, read-out: AK-based Prestwick Library Screening Results, P. aeruginosa (fold increase in extracellular AK activity)",1.2
same,fold induction at 50 µM,"E. faecium; planktonic, cutoff for positive 3-fold increase, read-out: AK-based Prestwick Library Screening Results, E. faecium (fold increase in extracellular AK activity)",1
same,fold induction at 50 µM,"[2]; planktonic, cutoff for positive 3-fold increase, read-out: AK-based Prestwick Library Screening Results, A. baumannii (fold increase in extracellular AK activity)",1
same,fold induction at 50 µM,"E. cloacae; planktonic, cutoff for positive 3-fold increase, read-out: AK-based Prestwick Library Screening Results, E. cloacae (fold increase in extracellular AK activity)",1.4
COc1ccc2[nH]c3c(c2c1)CCN=C3C [Methoxy-6-harmalan],"AK-based Prestwick Library Screening Results, E. coli (fold increase in extracellular AK activity)","E. coli; planktonic, […]",1.4
same,"AK-based Prestwick Library Screening Results, K. pneumoniae (fold increase in extracellular AK activity)","K. pneumoniae; planktonic, […]",1.0
same,"AK-based Prestwick Library Screening Results, S. aureus (fold increase in extracellular AK activity)","[1]; planktonic, […]",0.8
same,"AK-based Prestwick Library Screening Results, P. aeruginosa (fold increase in extracellular AK activity)","P. aeruginosa; planktonic, […]",1.2
same,"AK-based Prestwick Library Screening Results, E. faecium (fold increase in extracellular AK activity)","E. faecium; planktonic, […]",1.0
same,"AK-based Prestwick Library Screening Results, A. baumannii (fold increase in extracellular AK activity)","[2]; planktonic, […]",1.3
same,"AK-based Prestwick Library Screening Results, E. cloacae (fold increase in extracellular AK activity)","E. cloacae; planktonic, […]",1.4
COc1c2occc2cc2ccc(=O)oc12 [Methoxy-8-psoralen],"AK-based Prestwick Library Screening Results, E. coli (fold increase in extracellular AK activity)",E. coli; [4],1.1
same,"AK-based Prestwick Library Screening Results, K. pneumoniae (fold increase in extracellular AK activity)",K. pneumoniae; [4],0.9
same,"AK-based Prestwick Library Screening Results, S. aureus (fold increase in extracellular AK activity)",[1]; [4],1.0
same,"AK-based Prestwick Library Screening Results, P. aeruginosa (fold increase in extracellular AK activity)",P. aeruginosa; [4],1.0
same,"AK-based Prestwick Library Screening Results, E. faecium (fold increase in extracellular AK activity)",E. faecium; [4],1.1
same,"AK-based Prestwick Library Screening Results, A. baumannii (fold increase in extracellular AK activity)",[2]; [4],1.0
same,"AK-based Prestwick Library Screening Results, E. cloacae (fold increase in extracellular AK activity)",E. cloacae; [4],1.5
C[N+]1(C)[C@@H]2CC[C@H]1C[C@@H](OC(=O)C(CO)c1ccccc1)C2 (some centres unmarked) [Methylatropine nitrate],fold induction at 50 µM,"E. coli; planktonic, cutoff for positive-scoring molecules 3-fold increase, read-out: AK-based Prestwick Library Screening Results, E. coli (fold increase in extracellular AK activity)",0.7
same,fold induction at 50 µM,"K. pneumoniae; planktonic, cutoff for positive-scoring molecules 3-fold increase, read-out: AK-based Prestwick Library Screening Results, K. pneumoniae (fold increase in extracellular AK activity)",0.6
same,fold induction at 50 µM,"[1]; planktonic, cutoff for positive-scoring molecules 3-fold increase, read-out: AK-based Prestwick Library Screening Results, S. aureus (fold increase in extracellular AK activity)",0.6
same,fold induction at 50 µM,"P. aeruginosa; planktonic, cutoff for positive-scoring molecules 3-fold increase, read-out: AK-based Prestwick Library Screening Results, P. aeruginosa (fold increase in extracellular AK activity)",0.7
same,fold induction at 50 µM,"E. faecium; planktonic, cutoff for positive-scoring molecules 3-fold increase, read-out: AK-based Prestwick Library Screening Results, E. faecium (fold increase in extracellular AK activity)",1
same,fold induction at 50 µM,"[2]; planktonic, cutoff for positive-scoring molecules 3-fold increase, read-out: AK-based Prestwick Library Screening Results, A. baumannii (fold increase in extracellular AK activity)",0.7
same,fold induction at 50 µM,"E. cloacae; planktonic, cutoff for positive-scoring molecules 3-fold increase, read-out: AK-based Prestwick Library Screening Results, E. cloacae (fold increase in extracellular AK activity)",0.8
"C[C@](N)(Cc1ccc(O)c(O)c1)C(=O)O [Methyldopa (L,−)]",AK-based Prestwick Library Screening Results: E. coli (increase in extracellular AK activity),"E. coli; planktonic E. coli, 384-well, cutoff for positive-scoring molecules 3-fold increase",0.6
same,AK-based Prestwick Library Screening Results: K. pneumoniae (increase in extracellular AK activity),"K. pneumoniae; planktonic K. pneumoniae, 384-well, cutoff for positive-scoring molecules 3-fold increase",0.6
same,AK-based Prestwick Library Screening Results: S. aureus (increase in extracellular AK activity),"[1]; planktonic S. aureus, 384-well, cutoff for positive-scoring molecules 3-fold increase",0.4
same,AK-based Prestwick Library Screening Results: P. aeruginosa (increase in extracellular AK activity),"P. aeruginosa; planktonic P. aeruginosa, 384-well, cutoff for positive-scoring molecules 3-fold increase",0.4
same,AK-based Prestwick Library Screening Results: E. faecium (increase in extracellular AK activity),"E. faecium; planktonic E. faecium, 384-well, cutoff for positive-scoring molecules 3-fold increase",0.9
same,AK-based Prestwick Library Screening Results: A. baumannii (increase in extracellular AK activity),"[2]; planktonic A. baumannii, 384-well, cutoff for positive-scoring molecules 3-fold increase",0.5
same,AK-based Prestwick Library Screening Results: E. cloacae (increase in extracellular AK activity),"E. cloacae; planktonic E. cloacae, 384-well, cutoff for positive-scoring molecules 3-fold increase",0.5
CCOC(=O)[C@@](C)(N)Cc1ccc(O)c(O)c1 [Methyldopate hydrochloride],fold induction at 50 µM,"E. coli; planktonic E. coli, positive cutoff 3-fold increase, read-out: AK-based Prestwick library screening result, E. coli (fold increase in extracellular AK activity)",1.2
same,fold induction at 50 µM,"K. pneumoniae; planktonic K. pneumoniae, positive cutoff 3-fold increase, read-out: AK-based Prestwick library screening result, K. pneumoniae (fold increase in extracellular AK activity)",1.2
same,fold induction at 50 µM,"[1]; planktonic S. aureus, positive cutoff 3-fold increase, read-out: AK-based Prestwick library screening result, S. aureus (fold increase in extracellular AK activity)",1.2
same,fold induction at 50 µM,"P. aeruginosa; planktonic P. aeruginosa, positive cutoff 3-fold increase, read-out: AK-based Prestwick library screening result, P. aeruginosa (fold increase in extracellular AK activity)",1.1
same,fold induction at 50 µM,"E. faecium; planktonic E. faecium, positive cutoff 3-fold increase, read-out: AK-based Prestwick library screening result, E. faecium (fold increase in extracellular AK activity)",1.1
same,fold induction at 50 µM,"[2]; planktonic A. baumannii, positive cutoff 3-fold increase, read-out: AK-based Prestwick library screening result, A. baumannii (fold increase in extracellular AK activity)",1.4
same,fold induction at 50 µM,"E. cloacae; planktonic E. cloacae, positive cutoff 3-fold increase, read-out: AK-based Prestwick library screening result, E. cloacae (fold increase in extracellular AK activity)",1.8
CC[C@@H](CO)NC(=O)[C@@H]1C=C2c3cccc4[nH]cc(c34)C[C@H]2N(C)C1 [Methylergometrine maleate],fold induction at 50 µM,"E. coli; planktonic, […], read-out: AK-based Prestwick Library Screening Results, E. coli (fold increase in extracellular AK activity)",1
same,fold induction at 50 µM,"K. pneumoniae; planktonic, […], read-out: AK-based Prestwick Library Screening Results, K. pneumoniae (fold increase in extracellular AK activity)",1
same,fold induction at 50 µM,"[1]; planktonic, […], read-out: AK-based Prestwick Library Screening Results, S. aureus (fold increase in extracellular AK activity)",0.8
same,fold induction at 50 µM,"P. aeruginosa; planktonic, […], read-out: AK-based Prestwick Library Screening Results, P. aeruginosa (fold increase in extracellular AK activity)",0.9
same,fold induction at 50 µM,"E. faecium; planktonic, […], read-out: AK-based Prestwick Library Screening Results, E. faecium (fold increase in extracellular AK activity)",0.9
same,fold induction at 50 µM,"[2]; planktonic, […], read-out: AK-based Prestwick Library Screening Results, A. baumannii (fold increase in extracellular AK activity)",0.9
same,fold induction at 50 µM,"E. cloacae; planktonic, […], read-out: AK-based Prestwick Library Screening Results, E. cloacae (fold increase in extracellular AK activity)",1.6
C[C@H]1NC(=O)NC1=O [Methylhydantoin-5-(D)],"AK-based Prestwick Library Screening Results, E. coli (fold increase in extracellular AK activity)",E. coli; […],1.2
same,"AK-based Prestwick Library Screening Results, K. pneumoniae (fold increase in extracellular AK activity)",K. pneumoniae; [3],1.1
same,"AK-based Prestwick Library Screening Results, S. aureus (fold increase in extracellular AK activity)",[1]; [3],1.2
same,"AK-based Prestwick Library Screening Results, P. aeruginosa (fold increase in extracellular AK activity)",P. aeruginosa; [3],1.2
same,"AK-based Prestwick Library Screening Results, E. faecium (fold increase in extracellular AK activity)",E. faecium; [3],1.0
same,"AK-based Prestwick Library Screening Results, A. baumannii (fold increase in extracellular AK activity)",[2]; [3],1.3
same,"AK-based Prestwick Library Screening Results, E. cloacae (fold increase in extracellular AK activity)",E. cloacae; [3],1.5
C[C@@H]1NC(=O)NC1=O [Methylhydantoin-5-(L)],"AK-based Prestwick Library Screening Results, E. coli (fold increase in extracellular AK activity)",E. coli; […],1.4
same,"AK-based Prestwick Library Screening Results, K. pneumoniae (fold increase in extracellular AK activity)",K. pneumoniae; [3],1.0
same,"AK-based Prestwick Library Screening Results, S. aureus (fold increase in extracellular AK activity)",[1]; [3],1.3
same,"AK-based Prestwick Library Screening Results, P. aeruginosa (fold increase in extracellular AK activity)",P. aeruginosa; [3],1.1
same,"AK-based Prestwick Library Screening Results, E. faecium (fold increase in extracellular AK activity)",E. faecium; [3],1.1
same,"AK-based Prestwick Library Screening Results, A. baumannii (fold increase in extracellular AK activity)",[2]; [3],1.0
same,"AK-based Prestwick Library Screening Results, E. cloacae (fold increase in extracellular AK activity)",E. cloacae; [3],2.0
"C[C@H]1C[C@@H]2[C@H]([C@@H](O)C[C@@]3(C)[C@H]2CC[C@]3(O)C(=O)CO)[C@@]2(C)C=CC(=O)C=C12 [Methylprednisolone, 6-alpha]","AK-based Prestwick Library Screening Results, E. coli (increase in extracellular AK activity)",E. coli; [5],0.8
same,"AK-based Prestwick Library Screening Results, K. pneumoniae (increase in extracellular AK activity)",K. pneumoniae; [5],0.7
same,"AK-based Prestwick Library Screening Results, S. aureus (increase in extracellular AK activity)",[1]; [5],0.8
same,"AK-based Prestwick Library Screening Results, P. aeruginosa (increase in extracellular AK activity)",P. aeruginosa; [5],0.9
same,"AK-based Prestwick Library Screening Results, E. faecium (increase in extracellular AK activity)",E. faecium; [5],1.0
same,"AK-based Prestwick Library Screening Results, A. baumannii (increase in extracellular AK activity)",[2]; [5],0.9
same,"AK-based Prestwick Library Screening Results, E. cloacae (increase in extracellular AK activity)",E. cloacae; [5],1.3

# From US10004701B2, “Methods and compositions for treating infection” (UNIVERSITY OF ROCHESTER, priority 2012, dated 2018)
